Data on three compounds can be found in US20240215575A1, “METHOD OF PREPARING 1-(2,2-DIMETHYLPROPYL)-CYCLOPROPENE AS SPRAYABLE ETHYLENE ANTAGONIST IN PLANTS AND USES THEREOF” (KYUNG SANG NAM DO, priority 2022, published 2024).

For series [1] the following is noted: cited from earlier work.
Series [2] in a line: Storage stability of 1-DCP and its cyclodextrin inclusion complex. In kind it is physicochemical.
Series [3] has as its system banana fruits. The experiment in a line: 1-DCP immersion treatment of immature banana fruit followed by ethylene exposure. In kind it is in vivo. The protocol:
In particular, immature banana fruits were harvested from a banana farm in Sancheong-gun, Gyeongsangnam-do and transported to the laboratory, and on the same day, the fruits were separated into two groups: the fruits (16) in Group A (control group) were immersed in a 0.025% wetting agent (Carba, FarmHannong) solution not containing 1-DCP, and the fruits (16) in Group B (treatment group) were immersed in a 1 mM 1-DCP aqueous emulsion for 1 second, respectively, to wet the surface with the solution, and then dried at room temperature. Subsequently the next day, half of the fruits (8 each) from groups A and B were divided into two 40 L containers, sealed, and then injected with ethylene gas, thus exposing the fruits to 10 ppm of ethylene for 24 hours. The treated banana fruits were then stored at room temperature and observed for the degree of ripening after 7 days and after 14 days.

Series [4] has as its system Taechu sweet persimmon fruits. The experiment in a line: 1-DCP spray treatment of Taechu sweet persimmon fruits on the tree, flesh hardness during room temperature storage. The class given is in vivo, sweet persimmon (Taechu variety). The protocol:
In particular, four sweet persimmon trees of the Taechu variety were selected on October 7th at the Sweet Persimmon Research Institute Orchard located in Jinyeong-eup, Gyeongsangnam-do, and the fruits growing on two of these trees (control group) were treated with a solution containing 0.025% wetting agent (Carba, Farmhannong), and the fruits of the other two trees (treatment group) were sprayed with an aqueous emulsion containing 1 mM 1-DCP and 0.025% wetting agent using a manual sprayer. Fruits in each treatment group were harvested on October 24, and measured/observed for changes in flesh hardness after 7 days and 14 days while being stored at room temperature.

Values after ≈ are worked out from the molar mass of the structure shown. Read-outs that look alike come from different tables or passages of the source.

On to `OC[C@H]1O[C@@H]2O[C@H]3[C@H](O)[C@@H](O)[C@@H](O[C@H]4[C@H](O)[C@@H](O)[C@@H](O[C@H]5[C@H](O)[C@@H](O)[C@@H](O[C@H]6[C@H](O)[C@@H](O)[C@@H](O[C@H]7[C@H](O)[C@@H](O)[C@@H](O[C@H]8[C@H](O)[C@@H](O)[C@@H](O[C@H]1[C@H](O)[C@H]2O)O[C@@H]8CO)O[C@@H]7CO)O[C@@H]6CO)O[C@@H]5CO)O[C@@H]4CO)O[C@@H]3CO` [β-cyclodextrin], for which the solubility in water result in series [1] (compared to the alpha type) is listed as “extremely low solubility in water”.
Regarding `CC(C)(C)CC1=CC1` [1-DCP, 1-(2,2-dimethylpropyl)-cyclopropene], the “storage stability (polymerization)” value in series [2] (refrigerated conditions) is listed as “polymerization occurred within a few days”. Besides, the results for the storage stability entry in series [2] (room temperature) and in series [2] (stored in a −40° C. freezer) were “storage at room temperature for more than one day was impossible” and “several months or more”, respectively. Moreover, the degree of ripening result in series [3] (1 mM 1-DCP aqueous emulsion, immersion for 1 second, 10 ppm ethylene for 24 hours, room temperature storage, observed after 7 and 14 days) was “maintained a more immature state than the fruits of Group A up to 14 days”. Further, the “inhibition of ethylene action” value in series [3] (immersion treatment, 1 mM or less, banana fruits) is listed as “effectively inhibits ethylene action”; in series [4] (spray treatment, 1 mM or less, Taechu fruits), “effectively inhibits ethylene action”. The same compound came in with a flesh hardness in series [4] (spray of 1 mM 1-DCP aqueous emulsion with 0.025% wetting agent, after 7 days of storage at room temperature) of 19.5 N.
On to `OC[C@H]1O[C@@H]2O[C@H]3[C@H](O)[C@@H](O)[C@@H](O[C@H]4[C@H](O)[C@@H](O)[C@@H](O[C@H]5[C@H](O)[C@@H](O)[C@@H](O[C@H]6[C@H](O)[C@@H](O)[C@@H](O[C@H]7[C@H](O)[C@@H](O)[C@@H](O[C@H]1[C@H](O)[C@H]2O)O[C@@H]7CO)O[C@@H]6CO)O[C@@H]5CO)O[C@@H]4CO)O[C@@H]3CO` [a-cyclodextrin, α-cyclodextrin], for which the solubility in water in series [1] was 140 mg/mL (≈ 144 mM).
